# What was measured:
# [1] = system: H9 cells that are chronically infected with HIV; test: LiGLA 4 days incubation in vitro with H9 cells chronically infected with HIV; format: cell-based
# non-infected H9 cells = settings: 4 days incubation in vitro
# From the text: Lithium gamma linolenate (LiGLA) for this study was obtained from Enfamol, Kentville, Nova Scotia, Canada.
# [2] = system: CFU-GM (Myeloid) of normal bone marrow cells; test: AZT bone marrow toxicity in vitro, CFU-GM colony formation; format: cell-based; note: unit not given here
# From the text: (§1) This is a standard practice.
# [3] = system: CFU-Meg (Megakaryocyte) of normal bone marrow cells; test: AZT bone marrow toxicity in vitro, CFU-Meg colony formation; format: cell-based; note: unit not given here
# From the text: as §1
# [4] = system: BFU-E (Erythroid) of normal bone marrow cells; test: AZT bone marrow toxicity in vitro, BFU-E colony formation; format: cell-based; note: unit not given here
# From the text: as §1
smiles,measurement,setting,value
"CCCCC/C=C\C/C=C\C/C=C\CCCCC(=O)[O-].[Li+] [Li-GLA, lithium gamma-linolenate]",H9 cells killed,[1],90%
same,H9 cells killed,non-infected H9 cells,20%
same,CFU-GM (Myeloid) colonies,[2]; Li-GLA 10 μg/ml,66.5
same,CFU-GM (Myeloid) colonies,[2]; Li-GLA 15 μg/ml,55.5
same,CFU-GM (Myeloid) colonies,[2]; Li-GLA 20 μg/ml,45.0
same,CFU-Meg (Megakaryocyte) colonies,[3]; Li-GLA 10 μg/ml,32.0 ± 3
same,CFU-Meg (Megakaryocyte) colonies,[3]; Li-GLA 15 μg/ml,28.0 ± 4
same,CFU-Meg (Megakaryocyte) colonies,[3]; Li-GLA 20 μg/ml,24.0 ± 3
same,BFU-E (Erythroid) colonies,[4]; Li-GLA 10 μg/ml,50 ± 4
same,BFU-E (Erythroid) colonies,[4]; Li-GLA 15 μg/ml,44 ± 4
same,BFU-E (Erythroid) colonies,[4]; Li-GLA 20 μg/ml,31 ± 3

# Source: US5840711A, “Compositions containing lithium inorganic salts and anti-viral drugs and method of treating viral infections such as acquired immunodeficiency syndrome” (priority 1997, dated 1998)
